The text below walks through data of ChEMBL document CHEMBL3045383, “Synthesis, characterization, anticancer activity, and QSAR-studies of some new tetrahydropyrimidines” (2011).

Common to all, as to format: functional
Test [1] concerns NCI/ADR-RES. The test can be described thus: Cytotoxicity against Homo sapiens (human) NCI/ADR-RES cells after 48 hr by SRB assay. A general note: The SRB assay estimates cell density from bound dye.
For test [2], the system named is SK-MEL-5. As to the kind of experiment: Cytotoxicity against Homo sapiens (human) SK-MEL-5 cells after 48 hr by SRB assay. The note with it: SK-MEL-5, 48 h.
Test [3] has as its system COLO 205. As to the kind of experiment: Cytotoxicity against Homo sapiens (human) COLO205 cells after 48 hr by SRB assay. The conditions noted are these: COLO 205, 48 h.
Test [4] concerns HOP-92. As to the kind of experiment: Cytotoxicity against Homo sapiens (human) HOP92 cells after 48 hr by SRB assay. The note with it: HOP-92, 48 h.
In test [5] the test system is CAKI-1. The test can be described thus: Cytotoxicity against Homo sapiens (human) CAKI-1 cells after 48 hr by SRB assay. The note with it: CAKI-1, 48 h.
In test [6] the test system is SF-268. As to the kind of experiment: Cytotoxicity against Homo sapiens (human) SF268 cells after 48 hr by SRB assay. The conditions noted are these: SF-268, 48 h.
In test [7] the test system is PC-3. The test can be described thus: Cytotoxicity against Homo sapiens (human) PC3 cells after 48 hr by SRB assay. The conditions noted are these: PC-3, 48 h.
In test [8] the test system is HL-60(TB). The test can be described thus: Cytotoxicity against Homo sapiens (human) HL-60(TB) cells after 48 hr by SRB assay. The note with it: HL-60, 48 h.
Test [9] concerns IGROV-1. The test can be described thus: Cytotoxicity against Homo sapiens (human) IGROV1 cells after 48 hr by SRB assay. The conditions noted are these: IGROV-1, 48 h.

For `COc1cccc(C2NC(=S)NC(C)=C2C(=O)Nc2ccc(F)c(Cl)c2)c1` (stereo not drawn), the GI50 (usually the concentration at which growth is held to half of that of the control) in [1] is 15.5 µM; in test [2] it was 13.2 µM; in test [3], 26.9 µM; in test [4], 50.1 µM; in [5], 49 µM; in [6] it was 18.2 µM. In addition, the GI50 in test [7] was 23.4 µM; in test [8] it was 17.4 µM; in [9] it was 27.5 µM.
On to `CC1=C(C(=O)Nc2ccc(F)c(Cl)c2)C(c2cccc(Cl)c2)NC(=S)N1` (stereo not drawn), for which the GI50 in test [1] is 15.8 µM; in [2], 8.32 µM; in test [3] it was 4.17 µM; in test [4] it was 32.4 µM; in test [5] it was 39.8 µM; in [6] it was 10 µM. The 50% growth inhibitory concentration (GI50) in test [7] was 25.1 µM; in [8] it was 16.2 µM; in test [9], 14.1 µM.
In the case of `CC1=C(C(=O)Nc2ccc(F)c(Cl)c2)C(c2cccc(O)c2)NC(=S)N1` (stereo not drawn), the GI50 in test [1] is 17 µM; in [2], 11.2 µM; in [3], 22.4 µM; in [4], 50.1 µM; in test [5], 50.1 µM; in test [6], 17.8 µM. Moreover, the GI50 is 25.1 µM in test [7], 25.7 µM in [8] and 22.9 µM in [9].
`CC1=C(C(=O)Nc2ccc(Cl)c(Cl)c2)C(c2ccccc2Cl)NC(=S)N1` (stereo not drawn): the GI50 was 15.8 µM in [1]; 10 µM in test [2]; 7.94 µM in test [3]; 1.2 µM in test [4]; 17.8 µM in test [5]; 8.91 µM in test [6]. The GI50 in test [7] was 20 µM; in test [8], 15.5 µM; in test [9], 15.8 µM.
In the case of `CC1=C(C(=O)Nc2ccc(Cl)c(Cl)c2)C(c2cccc(O)c2)NC(=S)N1` (stereo not drawn), the GI50 in test [1] was 15.8 µM; in test [2] it was 10 µM; in [3], 7.08 µM; in test [4] it was 13.5 µM; in [5] it was 22.4 µM; in test [6], 15.8 µM. For the same compound, the values for the GI50 in test [7], in test [8] and in test [9] were 14.1 µM, 11.2 µM and 19.1 µM, respectively.
As for `CC1=C(C(=O)Nc2ccc(Cl)c(Cl)c2)C(c2ccccc2O)NC(=O)N1` (stereo not drawn), the GI50 was 17.8 µM in [1]; 12.6 µM in test [2]; 28.2 µM in [3]; 50.1 µM in [4]; 39.8 µM in test [5]; 28.2 µM in [6]. Besides, the GI50 is 33.9 µM in [7], 50.1 µM in [8] and 25.1 µM in test [9].
For the compound `CC1=C(C(=O)Nc2ccc(F)c(Cl)c2)C(c2ccccc2Cl)NC(=S)N1` (stereo not drawn), the GI50 in [1] was 16.6 µM; in test [2] it was 12.3 µM; in [3], 24 µM; in [4], 50.1 µM; in test [5], 31.6 µM; in [6], 14.8 µM. The GI50 in test [7] was 20.4 µM; in test [8] it was 25.7 µM; in [9] it was 17.8 µM.
In the case of `CC1=C(C(=O)Nc2ccc(F)c(Cl)c2)C(c2cccc(Oc3ccccc3)c2)NC(=S)N1` (stereo not drawn), the GI50 in test [1] was 15.5 µM; in [2] it was 8.91 µM; in [3], 17.8 µM; in [4], 20.9 µM; in [5], 12.6 µM; in test [6], 8.91 µM. Also, the GI50 in [7] is 12 µM; in test [8], 17.4 µM; in [9], 10.7 µM.
As to `CC1=C(C(=O)Nc2ccc(Cl)c(Cl)c2)C(c2cccc(Oc3ccccc3)c2)NC(=S)N1` (stereo not drawn), the GI50 in [1] was 15.5 µM; in test [2], 7.94 µM; in [3], 9.33 µM; in [4], 13.2 µM; in test [5], 8.51 µM; in [6], 6.17 µM. In addition, the GI50 in test [7] is 9.77 µM; in [8], 83.2 µM; in [9] it was 7.76 µM.
In the case of `COc1cccc(C2NC(=S)NC(C)=C2C(=O)Nc2ccc(Cl)c(Cl)c2)c1` (stereo not drawn), the GI50 was 16.6 µM in [1]; 9.55 µM in test [2]; 9.33 µM in test [3]; 12.6 µM in [4]; 17.8 µM in test [5]; 12.6 µM in test [6]. For the same compound, the figures for the GI50 in [7], in test [8] and in test [9] were 14.5 µM, 49 µM and 15.8 µM, respectively.
Consider `CC1=C(C(=O)Nc2ccc(F)c(Cl)c2)C(c2cccc(Oc3ccccc3)c2)NC(=O)N1` (stereo not drawn), for which the GI50 in test [1] is 16.2 µM; in test [2], 7.59 µM; in [3] it was 6.31 µM; in test [4], 40.7 µM; in test [5], 10 µM; in test [6], 8.51 µM. Besides, the GI50 in [7] was 22.4 µM; in [8], 13.8 µM; in test [9] it was 7.94 µM.
As for `CC1=C(C(=O)Nc2ccc(Cl)c(Cl)c2)C(c2cccc(Cl)c2)NC(=O)N1` (stereo not drawn), the GI50 is 16.6 µM in test [1]; 9.55 µM in test [2]; 7.94 µM in test [3]; 45.7 µM in [4]; 12.6 µM in test [5]; 11.2 µM in test [6]. In addition, the GI50 in [7] is 50.1 µM; in test [8] it was 13.5 µM; in [9], 10.5 µM.
